Patent US20250186627A1, “RADIOLABELED COMPOUNDS TARGETING THE PROSTATE-SPECIFIC MEMBRANE ANTIGEN” (PROVINCIAL HEALTH SERVICES AUTHORITY, priority 2022, published 2025)
*1 amine or outer side, *2 acyl side, *3 side chain or, on linkers, in order; H or OH if unused. Where a SMILES comes first, the peptide text is derived from it. [ ]: non-standard residue; d: D form. The star is where a group is joined. ξ: configuration not given here. ξLys(Nα-CO-ξAad) = O=C(O)CCCC(NC(=O)NC(CCCCN*)C(=O)O)C(=O)O; Butanoyl(4-(4-NO2Ph)) = O=C(CCCc1ccc([N+](=O)[O-])cc1)*; DOTA = O=C(O)CN1CCN(CC(=O)O)CCN(CC(=O)*)CCN(CC(=O)O)CC1; ξAla(9-anthryl) = NC(Cc1c2ccccc2cc2ccccc12)C(=O)O; X1 = O=C(C1CCC(CN[*:1])CC1)[*:2]; ξK = NCCCCC(N)C(=O)O

Tested on: NRG-mice bearing LNCaP tumors
Assay: Biodistribution (and PET/SPECT imaging) in NRG-mice bearing LNCaP tumors
Type: in vivo
Conditions: for Biodistribution: Adrenal gland / Biodistribution: Blood / Biodistribution: Bone / Biodistribution: Brain / Biodistribution: Fat / Biodistribution: Heart / Biodistribution: Intestine / Biodistribution: LNCaP tumor / Biodistribution: Lacrimal gland / Biodistribution: Liver / Biodistribution: Lungs / Biodistribution: Muscle / Biodistribution: Pancreas / Biodistribution: Salivary gland / Biodistribution: Seminal gland / Biodistribution: Spleen / Biodistribution: Stomach / Biodistribution: Testes / Biodistribution: Thyroid / Biodistribution: Urine / Biodistribution: kidney: Avg
Summary of the method: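 LNCaP xenografts (~10 million cells, left dorsal flank) grown 4-6 weeks to 200-600 mm^3 in NRG mice. Tail-vein injection of 4-6 MBq ^68Ga or 18.5 MBq ^177Lu tracer under isoflurane; CT then 10-min static PET or 1-h SPECT. Biodistribution by gamma counting of weighed organs, expressed as %ID/g.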

LNCaP tumor uptake compared to 177Lu-HTK03170: substantially improved | Biodistribution: Adrenal gland (3 h p.i.): 3.41 % ID/g | Biodistribution: Blood (3 h p.i.): 14.17 % ID/g | Biodistribution: Bone (3 h p.i.): 0.78 % ID/g | Biodistribution: Brain (3 h p.i.): 0.24 % ID/g | Biodistribution: Fat (3 h p.i.): 1.85 % ID/g | Biodistribution: Heart (3 h p.i.): 3.24 % ID/g | Biodistribution: Intestine (3 h p.i.): 1.03 % ID/g | Biodistribution: LNCaP tumor (3 h p.i.): 39.27 % ID/g | Biodistribution: Lacrimal gland (3 h p.i.): 0.20 % ID/g | Biodistribution: Liver (3 h p.i.): 2.31 % ID/g | Biodistribution: Lungs (3 h p.i.): 6.68 % ID/g | Biodistribution: Muscle (3 h p.i.): 1.18 % ID/g | Biodistribution: Pancreas (3 h p.i.): 2.27 % ID/g | Biodistribution: Salivary gland (3 h p.i.): 2.43 % ID/g | Biodistribution: Seminal gland (3 h p.i.): 0.93 % ID/g | Biodistribution: Spleen (3 h p.i.): 2.25 % ID/g | Biodistribution: Stomach (3 h p.i.): 1.55 % ID/g | Biodistribution: Testes (3 h p.i.): 6.56 % ID/g | Biodistribution: Thyroid (3 h p.i.): 2.87 % ID/g | Biodistribution: Urine (3 h p.i.): 97.91 % ID/g | Biodistribution: kidney (3 h p.i.): 17.31 % ID/g | Biodistribution: Adrenal gland (24 h p.i.): 0.61 % ID/g | Biodistribution: Blood (24 h p.i.): 0.61 % ID/g | Biodistribution: Bone (24 h p.i.): 0.07 % ID/g | Biodistribution: Brain (24 h p.i.): 0.03 % ID/g | Biodistribution: Fat (24 h p.i.): 0.20 % ID/g | Biodistribution: Heart (24 h p.i.): 0.24 % ID/g | Biodistribution: Intestine (24 h p.i.): 0.13 % ID/g | Biodistribution: LNCaP tumor (24 h p.i.): 89.90 % ID/g | Biodistribution: Lacrimal gland (24 h p.i.): 0.04 % ID/g | Biodistribution: Liver (24 h p.i.): 0.31 % ID/g | Biodistribution: Lungs (24 h p.i.): 0.55 % ID/g | Biodistribution: Muscle (24 h p.i.): 0.08 % ID/g | Biodistribution: Pancreas (24 h p.i.): 0.11 % ID/g | Biodistribution: Salivary gland (24 h p.i.): 0.35 % ID/g | Biodistribution: Seminal gland (24 h p.i.): 0.07 % ID/g | Biodistribution: Spleen (24 h p.i.): 0.35 % ID/g | Biodistribution: Stomach (24 h p.i.): 0.15 % ID/g | Biodistribution: Testes (24 h p.i.): 0.48 % ID/g | Biodistribution: Thyroid (24 h p.i.): 0.40 % ID/g | Biodistribution: Urine (24 h p.i.): 9.85 % ID/g | Biodistribution: kidney (24 h p.i.): 5.58 % ID/g | Biodistribution: Adrenal gland (72 h p.i.): 0.34 % ID/g | Biodistribution: Blood (72 h p.i.): 0.07 % ID/g | Biodistribution: Bone (72 h p.i.): 0.02 % ID/g | Biodistribution: Brain (72 h p.i.): 0.01 % ID/g | Biodistribution: Fat (72 h p.i.): 0.15 % ID/g | Biodistribution: Heart (72 h p.i.): 0.10 % ID/g | Biodistribution: Intestine (72 h p.i.): 0.04 % ID/g | Biodistribution: LNCaP tumor (72 h p.i.): 70.84 % ID/g | Biodistribution: Lacrimal gland (72 h p.i.): 0.01 % ID/g | Biodistribution: Liver (72 h p.i.): 0.23 % ID/g | Biodistribution: Lungs (72 h p.i.): 0.16 % ID/g | Biodistribution: Muscle (72 h p.i.): 0.02 % ID/g | Biodistribution: Pancreas (72 h p.i.): 0.04 % ID/g | Biodistribution: Salivary gland (72 h p.i.): 0.14 % ID/g | Biodistribution: Seminal gland (72 h p.i.): 0.03 % ID/g | Biodistribution: Spleen (72 h p.i.): 0.38 % ID/g | Biodistribution: Stomach (72 h p.i.): 0.04 % ID/g | Biodistribution: Testes (72 h p.i.): 0.29 % ID/g | Biodistribution: Thyroid (72 h p.i.): 0.16 % ID/g | Biodistribution: Urine (72 h p.i.): 2.63 % ID/g | Biodistribution: kidney (72 h p.i.): 3.21 % ID/g | Biodistribution: Adrenal gland (144 h p.i.): 0.23 % ID/g | Biodistribution: Blood (144 h p.i.): 0.01 % ID/g | Biodistribution: Bone (144 h p.i.): 0.02 % ID/g | Biodistribution: Brain (144 h p.i.): 0.01 % ID/g | Biodistribution: Fat (144 h p.i.): 0.22 % ID/g | Biodistribution: Heart (144 h p.i.): 0.04 % ID/g | Biodistribution: Intestine (144 h p.i.): 0.01 % ID/g | Biodistribution: LNCaP tumor (144 h p.i.): 116.43 % ID/g | Biodistribution: Lacrimal gland (144 h p.i.): 0.00 % ID/g | Biodistribution: Liver (144 h p.i.): 0.09 % ID/g | Biodistribution: Lungs (144 h p.i.): 0.08 % ID/g | Biodistribution: Muscle (144 h p.i.): 0.01 % ID/g | Biodistribution: Pancreas (144 h p.i.): 0.01 % ID/g | Biodistribution: Salivary gland (144 h p.i.): 0.05 % ID/g | Biodistribution: Seminal gland (144 h p.i.): 0.01 % ID/g | Biodistribution: Spleen (144 h p.i.): 0.37 % ID/g | Biodistribution: Stomach (144 h p.i.): 0.02 % ID/g | Biodistribution: Testes (144 h p.i.): 0.15 % ID/g | Biodistribution: Thyroid (144 h p.i.): 0.11 % ID/g | Biodistribution: Urine (144 h p.i.): 1.88 % ID/g | Biodistribution: kidney (144 h p.i.): 1.98 % ID/g | Biodistribution: Adrenal gland (240 h p.i.): 0.02 % ID/g | Biodistribution: Blood (240 h p.i.): 0.00 % ID/g | Biodistribution: Bone (240 h p.i.): 0.01 % ID/g | Biodistribution: Brain (240 h p.i.): 0.00 % ID/g | Biodistribution: Fat (240 h p.i.): 0.06 % ID/g | Biodistribution: Heart (240 h p.i.): 0.01 % ID/g | Biodistribution: Intestine (240 h p.i.): 0.01 % ID/g | Biodistribution: LNCaP tumor (240 h p.i.): 95.45 % ID/g | Biodistribution: Lacrimal gland (240 h p.i.): 0.00 % ID/g | Biodistribution: Liver (240 h p.i.): 0.06 % ID/g | Biodistribution: Lungs (240 h p.i.): 0.14 % ID/g | Biodistribution: Muscle (240 h p.i.): 0.01 % ID/g | Biodistribution: Pancreas (240 h p.i.): 0.00 % ID/g | Biodistribution: Salivary gland (240 h p.i.): 0.01 % ID/g | Biodistribution: Seminal gland (240 h p.i.): 0.00 % ID/g | Biodistribution: Spleen (240 h p.i.): 0.50 % ID/g | Biodistribution: Stomach (240 h p.i.): 0.01 % ID/g | Biodistribution: Testes (240 h p.i.): 0.08 % ID/g | Biodistribution: Thyroid (240 h p.i.): 0.03 % ID/g | Biodistribution: Urine (240 h p.i.): 0.43 % ID/g | Biodistribution: kidney (240 h p.i.): 0.46 % ID/g
SMILES: O=C([O-])CN1CCN(CC(=O)[O-])CCN(CC(=O)NCCCCC(NC(=O)CNC(=O)CCCc2ccc([N+](=O)[O-])cc2)C(=O)NCC(=O)NCC2CCC(C(=O)NC(Cc3c4ccccc4cc4ccccc34)C(=O)NCCCCC(NC(=O)NC(CCCC(=O)O)C(=O)O)C(=O)O)CC2)CCN(CC(=O)[O-])CC1.[177Lu+3] (stereo not shown) [^177Lu-CCZ02017] ({Butanoyl(4-(4-NO2Ph))}-G[ξK](DOTA)G[X1][ξAla(9-anthryl)]-{ξLys(Nα-CO-ξAad)})
